From patent US10259810B2, “N-sulfonylated pyrazolo[3,4-b]pyridin-6-carboxamides and method of use” (AbbVie S.à.r.l., priority 2015, dated 2019)

How the values were obtained:
ΔF508-CFTR [1] = molecular target: T1, ΔF508-CFTR (Homo sapiens, UniProt P13569, DEL508-508); test: CFTR cell surface levels using HRP-tagged ΔF508-CFTR expressing CFBE cells, in the presence of a co-corrector; format: cell-based; details: HRP-tagged ΔF508-CFTR CFBE cells, in the presence of 3 μM co-corrector; for EC50: read-out: EC50
T1 construct: host or cells: CFBE41o-, doxycycline-inducible
T1 sequence (P13569 with tags, fused parts or gaps DEL508-508): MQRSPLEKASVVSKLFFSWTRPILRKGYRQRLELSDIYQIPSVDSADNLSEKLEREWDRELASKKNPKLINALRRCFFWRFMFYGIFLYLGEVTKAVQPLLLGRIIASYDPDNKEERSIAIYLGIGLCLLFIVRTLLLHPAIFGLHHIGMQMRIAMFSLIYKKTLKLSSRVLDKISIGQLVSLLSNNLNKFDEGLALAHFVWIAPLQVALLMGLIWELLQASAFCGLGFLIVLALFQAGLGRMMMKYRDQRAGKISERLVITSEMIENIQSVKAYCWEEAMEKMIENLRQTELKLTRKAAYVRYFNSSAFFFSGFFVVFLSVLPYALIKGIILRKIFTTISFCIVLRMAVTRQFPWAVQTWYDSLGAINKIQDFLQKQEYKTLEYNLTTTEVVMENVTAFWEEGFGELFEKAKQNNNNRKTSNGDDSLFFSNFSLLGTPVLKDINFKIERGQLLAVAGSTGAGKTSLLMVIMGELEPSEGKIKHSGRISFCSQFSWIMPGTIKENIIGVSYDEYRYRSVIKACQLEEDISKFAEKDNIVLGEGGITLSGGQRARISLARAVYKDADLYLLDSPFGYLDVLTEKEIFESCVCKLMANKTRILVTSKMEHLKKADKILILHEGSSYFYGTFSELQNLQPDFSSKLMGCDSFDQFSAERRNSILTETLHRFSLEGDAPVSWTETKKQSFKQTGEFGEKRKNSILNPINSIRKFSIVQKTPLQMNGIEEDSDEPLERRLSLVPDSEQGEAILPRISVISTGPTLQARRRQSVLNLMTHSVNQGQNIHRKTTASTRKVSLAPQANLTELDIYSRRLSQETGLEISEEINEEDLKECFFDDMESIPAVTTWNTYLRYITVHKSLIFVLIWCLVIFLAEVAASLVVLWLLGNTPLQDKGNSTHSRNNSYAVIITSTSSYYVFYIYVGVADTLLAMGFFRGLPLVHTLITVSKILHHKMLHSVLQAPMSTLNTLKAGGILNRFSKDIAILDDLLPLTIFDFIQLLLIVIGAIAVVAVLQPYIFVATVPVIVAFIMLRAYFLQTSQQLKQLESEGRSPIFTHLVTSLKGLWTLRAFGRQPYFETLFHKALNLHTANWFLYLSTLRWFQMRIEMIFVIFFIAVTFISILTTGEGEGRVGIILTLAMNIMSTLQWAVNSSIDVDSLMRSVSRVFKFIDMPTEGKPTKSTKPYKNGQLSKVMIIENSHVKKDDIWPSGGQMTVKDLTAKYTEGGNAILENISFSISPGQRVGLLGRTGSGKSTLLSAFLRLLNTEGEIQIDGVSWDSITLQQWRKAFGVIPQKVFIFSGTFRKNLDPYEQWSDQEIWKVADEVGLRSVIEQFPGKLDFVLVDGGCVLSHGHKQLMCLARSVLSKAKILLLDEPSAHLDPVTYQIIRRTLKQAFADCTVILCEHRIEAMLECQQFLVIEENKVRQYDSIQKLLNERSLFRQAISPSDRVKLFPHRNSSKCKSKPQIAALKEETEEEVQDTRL
Procedure, shortened: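 Chemiluminescent read-out of surface HRP (15 min, dark) after PBS washes. Activity is normalized as 100×(sample−DMSO)/(3 μM co-corrector alone−DMSO).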

ΔF508-CFTR [2] = molecular target: T1, ΔF508-CFTR; test: CFTR cell surface levels using HRP-tagged ΔF508-CFTR expressing CFBE cells, intrinsic corrector capacity; format: cell-based; set-up: % Activation: concentration or dose not given beside the values; details: HRP-tagged ΔF508-CFTR expressing CFBE41o- cells, compound alone (intrinsic corrector capacity), 20 hours at 33° C.; for EC50: read-out: EC50
Procedure, shortened: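 Read-out: chemiluminescent HRP activity of ECL4-HRP-tagged ΔF508-CFTR at the cell surface, 15 min substrate in dark. Normalized as 100×(sample−DMSO)/(positive control−DMSO).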

Structure (SMILES) | % Activation (ΔF508-CFTR [1]) | EC50 (ΔF508-CFTR [1]) | % Activation (ΔF508-CFTR [2]) | EC50 (ΔF508-CFTR [2])
CS(=O)(=O)NC(=O)c1cc(N2CCC(OCC(=O)N3CCCC3)CC2)c2c(C3CCC3)nn(-c3ccccc3)c2n1 [Compound 154, 3-cyclobutyl-N-(methanesulfonyl)-4-{4-[2-oxo-2-(pyrrolidin-1-yl)ethoxy]piperidin-1-yl}-1-phenyl-1H-pyrazolo[3,4-b]pyridine-6-carboxamide] | 447.85% | 203 nM | 275.65% | 533 nM
CS(=O)(=O)NC(=O)c1cc(-c2ccc(N3CCC(C#N)CC3)nc2)c2c(n1)n(-c1ccccc1)nc2[C@H]1C[C@@H](F)C1 [Compound 209, 4-[6-(4-cyanopiperidin-1-yl)pyridin-3-yl]-3-(cis-3-fluorocyclobutyl)-N-(methanesulfonyl)-1-phenyl-1H-pyrazolo[3,4-b]pyridine-6-carboxamide] | 393.6% | 231 nM | 247.6% | 381 nM
COCC1CCN(c2cc(C(=O)NS(=O)(=O)N3CCC[C@H]3C(=O)N3CCN(C)CC3)nc3c2c(C2CCC2)nn3-c2ccccc2)CC1 [Compound 389, 3-cyclobutyl-4-[4-(methoxymethyl)piperidin-1-yl]-N-[(2S)-2-(4-methylpiperazine-1-carbonyl)pyrrolidine-1-sulfonyl]-1-phenyl-1H-pyrazolo[3,4-b]pyridine-6-carboxamide] | 305.1% | 297 nM | 165% | 556 nM
CN(C)S(=O)(=O)NC(=O)c1cc(N2CCC(N3CCOCC3)CC2)c2c(C3CCC3)nn(-c3cccc(C(F)(F)F)c3)c2n1 [Compound 513, 3-cyclobutyl-N-(dimethylsulfamoyl)-4-[4-(morpholin-4-yl)piperidin-1-yl]-1-[3-(trifluoromethyl)phenyl]-1H-pyrazolo[3,4-b]pyridine-6-carboxamide] | 476.3% | 66.7 nM | 278.5% | 101 nM
CC(C)Oc1nn(-c2ccccc2)c2nc(C(=O)NS(C)(=O)=O)cc(-c3ccc(N4CCOCC4)cc3)c12 [Compound 166, N-(methanesulfonyl)-4-[4-(morpholin-4-yl)phenyl]-1-phenyl-3-[(propan-2-yl)oxy]-1H-pyrazolo[3,4-b]pyridine-6-carboxamide] | 408.53% | 310 nM | 235.2% | 439 nM
COCC1CCN(c2cc(C(=O)NS(=O)(=O)c3cn[nH]c3)nc3c2c(C2CCC2)nn3-c2ccccc2)CC1 [Compound 253, 3-cyclobutyl-4-[4-(methoxymethyl)piperidin-1-yl]-1-phenyl-N-(1H-pyrazole-4-sulfonyl)-1H-pyrazolo[3,4-b]pyridine-6-carboxamide] | 454.4% | 251 nM | 174.6% | 676 nM
COCC1CCN(c2cc(C(=O)N3CCCS3(=O)=O)nc3c2c(C2CCC2)nn3-c2ccccc2)CC1 [Compound 667, 2-{3-cyclobutyl-4-[4-(methoxymethyl)piperidin-1-yl]-1-phenyl-1H-pyrazolo[3,4-b]pyridine-6-carbonyl}-1λ^6,2-thiazolidine-1,1-dione] | 225.5% | 85.5 nM | 75.435% | 208 nM
Cc1cc(-n2nc(C3CCC3)c3c(N4CCC(N5CCOCC5)CC4)cc(C(=O)NS(C)(=O)=O)nc32)ccc1F [Compound 514, 3-cyclobutyl-1-(4-fluoro-3-methylphenyl)-N-(methanesulfonyl)-4-[4-(morpholin-4-yl)piperidin-1-yl]-1H-pyrazolo[3,4-b]pyridine-6-carboxamide] | 540.3% | 97.1 nM | 301.4% | 150 nM
CC(C)c1nn(-c2ccc(F)cc2)c2nc(C(=O)NS(C)(=O)=O)cc(OCCCN3CCCCC3)c12 [Compound 307, 1-(4-fluorophenyl)-N-(methanesulfonyl)-4-[3-(piperidin-1-yl)propoxy]-3-(propan-2-yl)-1H-pyrazolo[3,4-b]pyridine-6-carboxamide] | 299.25% | 1280 nM | 172.7% | 3330 nM
Cc1nn(-c2ccc(F)cc2F)c2nc(C(=O)NS(C)(=O)=O)cc(-c3ccc(N4CCOCC4)cc3)c12 [Compound 21, 1-(2,4-difluorophenyl)-N-(methanesulfonyl)-3-methyl-4-[4-(morpholin-4-yl)phenyl]-1H-pyrazolo[3,4-b]pyridine-6-carboxamide] | 440.1% | 525 nM | 264.25% | 685 nM
COC1(C)CCN(c2cc(C(=O)NS(C)(=O)=O)nc3c2c(C(C)C)nn3-c2ccc(F)cc2)CC1 [Compound 173, 1-(4-fluorophenyl)-N-(methanesulfonyl)-4-(4-methoxy-4-methylpiperidin-1-yl)-3-(propan-2-yl)-1H-pyrazolo[3,4-b]pyridine-6-carboxamide] | 183.2% | 433 nM | 51.395% | 412 nM
CCS(=O)(=O)NC(=O)c1cc(-c2ccc(N3CCOCC3)cc2)c2c(C)nn(-c3cccc(OC)c3)c2n1 [Compound 73, N-(ethanesulfonyl)-1-(3-methoxyphenyl)-3-methyl-4-[4-(morpholin-4-yl)phenyl]-1H-pyrazolo[3,4-b]pyridine-6-carboxamide] | 423.35% | 490 nM | 254.1% | 657 nM
COCCS(=O)(=O)NC(=O)c1cc(N2CCC(N3CCOCC3)CC2)c2c(C3CCC3)nn(C3CCCCC3)c2n1 [Compound 419, 3-cyclobutyl-1-cyclohexyl-N-(2-methoxyethanesulfonyl)-4-[4-(morpholin-4-yl)piperidin-1-yl]-1H-pyrazolo[3,4-b]pyridine-6-carboxamide] | 505.65% | 277 nM | 293% | 448 nM
CC(C)c1nn(C2CCCCC2)c2nc(C(=O)NS(C)(=O)=O)cc(-c3ccc(N4CCOCC4)nc3)c12 [Compound 44, 1-cyclohexyl-N-(methanesulfonyl)-4-[6-(morpholin-4-yl)pyridin-3-yl]-3-(propan-2-yl)-1H-pyrazolo[3,4-b]pyridine-6-carboxamide] | 412.63% | 276 nM | 203.87% | 404 nM
COCCN(C)c1ccc(-c2cc(C(=O)NS(C)(=O)=O)nc3c2c(C(C)C)nn3-c2cccc(N3CCCC3)c2)cc1 [Compound 109, N-(methanesulfonyl)-4-{4-[(2-methoxyethyl)(methyl)amino]phenyl}-3-(propan-2-yl)-1-[3-(pyrrolidin-1-yl)phenyl]-1H-pyrazolo[3,4-b]pyridine-6-carboxamide] | 571.3% | 634 nM | 381.05% | 613 nM
CCS(=O)(=O)N(C)C(=O)c1cc(N2CCC(N3CCOCC3)CC2)c2c(C3CCC3)nn(-c3ccccc3)c2n1 [Compound 658, 3-cyclobutyl-N-(ethanesulfonyl)-N-methyl-4-[4-(morpholin-4-yl)piperidin-1-yl]-1-phenyl-1H-pyrazolo[3,4-b]pyridine-6-carboxamide] | 270.6% |  | 99.025% | 
